Test results from patent US20220089599A1, “ALKYNYL NICOTINAMIDE COMPOUNDS AS KINASE INHIBITORS” (PURDUE RESEARCH FOUNDATION, priority 2018, published 2022).
Where two headings read alike, the source gives them in different places.

Key:
MOLM14-D835Y = assay type: cell-based
MOLM14-F691L = assay type: cell-based; conditions: Homo sapiens
K562 = assay type: cell-based; conditions: Homo sapiens
KCL22 = assay type: cell-based; conditions: Homo sapiens
KCL22-IR = assay type: cell-based; conditions: read-out: IC50 KCL22-IR
MV-4-11 = assay type: cell-based; conditions: Homo sapiens
MOLM13-res = assay type: cell-based; conditions: read-out: IC50 MOLM13-res
MOLM14 = assay type: cell-based; conditions: Homo sapiens
H520 = assay type: cell-based; conditions: Homo sapiens
LC2/Ad = experiment: cells; conditions: Homo sapiens, LC-2-ad, read-out: IC50 LC2/Ad
c-SRC = c-SRC (Homo sapiens, UniProt P12931); experiment: Kinase IC50 at Reaction Biology; assay type: biochemical
[1] = Homo sapiens, cell activities of other nicotinamide compounds, MOLM-14 (ITD, D85Y), read-out: IC50 MOLM-14 (ITD, D85Y)
[2] = cell activities of other nicotinamide compounds, MOLM-14 (ITD, F691L), read-out: IC50 MOLM-14 (ITD, F691L)
[3] = cell activities of other nicotinamide compounds, K562, read-out: IC50 K562
[4] = KCL-22, cell activities of other nicotinamide compounds, KCL22, read-out: IC50 KCL22
[5] = cell activities of other nicotinamide compounds, KCL22-IR
[6] = cell activities of other nicotinamide compounds, MOLM-14, read-out: IC50 MOLM-14

c-SRC, sequence (P12931 whole entry): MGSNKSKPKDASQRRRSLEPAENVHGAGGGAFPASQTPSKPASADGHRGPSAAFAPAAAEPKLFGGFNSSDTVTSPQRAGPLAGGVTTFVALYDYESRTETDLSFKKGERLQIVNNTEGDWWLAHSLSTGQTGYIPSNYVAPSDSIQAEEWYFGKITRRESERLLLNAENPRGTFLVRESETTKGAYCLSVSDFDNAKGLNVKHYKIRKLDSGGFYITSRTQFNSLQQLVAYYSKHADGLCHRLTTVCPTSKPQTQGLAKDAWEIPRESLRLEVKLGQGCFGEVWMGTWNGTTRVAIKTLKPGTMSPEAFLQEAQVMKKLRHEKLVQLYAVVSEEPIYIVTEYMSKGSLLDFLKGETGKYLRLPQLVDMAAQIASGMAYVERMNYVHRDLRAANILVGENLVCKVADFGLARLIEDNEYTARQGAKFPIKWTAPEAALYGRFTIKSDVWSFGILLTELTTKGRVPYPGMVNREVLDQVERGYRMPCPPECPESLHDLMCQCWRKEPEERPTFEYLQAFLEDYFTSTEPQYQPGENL

| SMILES | IC50 (MOLM14-D835Y; [1]) [nM] | IC50 (MOLM14-F691L; [2]) [nM] | IC50 (K562; [3]) [nM] | IC50 (KCL22; [4]) [nM] | IC50 (KCL22-IR; [5]) [nM] | IC50 (MOLM14; [6]) [nM] | also measured |
| --- | --- | --- | --- | --- | --- | --- | --- |
| Cc1ccc(C(=O)Nc2ccc(CN3CCN(C)CC3)c(C(F)(F)F)c2)cc1C#Cc1cnc2cccnn12 [Ponatinib, reference compound] | – | – | – | – | – | – | IC50 (MV-4-11; MV4-11, read-out: IC50 MV-4-11): 0.09 nM; IC50 (MOLM13-res): 24.1 nM; IC50 (MOLM14; MOLM-14, read-out: IC50 MOLM14): 0.45 nM; IC50 (MOLM14-D835Y; read-out: IC50 MOLM14-D835Y): 52.6 nM; IC50 (MOLM14-F691L; MOLM-14, read-out: IC50 MOLM14-F691L): 6.8 nM; IC50 (K562; K562, read-out: IC50 K562): 0.6 nM; IC50 (KCL22; KCL-22, read-out: IC50 KCL22): 0.14 nM; IC50 (KCL22-IR): 0.66 nM; IC50 (H520; NCI-H520, read-out: IC50 H520): 128 nM; IC50 (LC2/Ad): 35.1 nM |
| CN1CCN(Cc2ccc(C(=O)Nc3cncc(C#Cc4cnc5cccnn45)c3)cc2C(F)(F)F)CC1 [HSL338, N-(5-(imidazo[1,2-b]pyridazin-3-ylethynyl)pyridin-3-yl)-4-((4-methylpiperazin-1-yl)methyl)-3-(trifluoromethyl)benzamide] | 7.4 ± 0.04 | – | 0.45 ± 0.002 | 1.4 ± 0.02 | 4.2 ± 0.04 | 0.075 ± 0.0005 | – |
| CN1CCN(Cc2ccc(NC(=O)c3cncc(C#Cc4cnc5ncccn45)c3)cc2C(F)(F)F)CC1 [HSL382, 5-(imidazo[1,2-a]pyrimidin-3-ylethynyl)-N-(4-((4-methylpiperazin-1-yl)methyl)-3-(trifluoromethyl)phenyl)nicotinamide] | > 100 | > 100 | > 100 | > 100 | > 100 | 5.15 ± 0.09 | – |
| CN1CCN(Cc2ccc(NC(=O)c3cncc(C#Cc4cnc5cnccn45)c3)cc2C(F)(F)F)CC1 [HSL385, 5-(imidazo[1,2-a]pyrazin-3-ylethynyl)-N-(4-((4-methylpiperazin-1-yl)methyl)-3-(trifluoromethyl)phenyl)nicotinamide] | 28.5 ± 0.9 | – | 0.94 ± 0.002 | 2.62 ± 0.06 | 17.2 ± 0.8 | 0.15 ± 0.007 | – |
| CN1CCN(Cc2ccc(NC(=O)c3cncc(C#Cc4cnc5cccnn45)c3)cc2C(F)(F)F)CC1 [HSN748, 5-(imidazo[1,2-b]pyridazin-3-ylethynyl)-N-(4-((4-methylpiperazin-1-yl)methyl)-3-(trifluoromethyl)phenyl)nicotinamide] | – | – | – | – | – | – | IC50 (c-SRC; [ATP] = 100 μM, read-out: IC50 c-SRC): > 1000 nM; IC50 (c-SRC; read-out: IC50 c-Src kinase): > 1000 nM; IC50 (MV-4-11; MV4-11, growth inhibition, MV-4-11 (FLT3) cell line, read-out: IC50 MV-4-11): 0.07 nM; IC50 (MOLM13-res; growth inhibition, MOLM13-res cell line): 1.73 nM; IC50 (MOLM14; MOLM-14, growth inhibition, MOLM14 cell line, read-out: IC50 MOLM14): 0.05 nM; IC50 (MOLM14-D835Y; growth inhibition, quizartinib-resistant AML cell line, read-out: IC50 MOLM14-D835Y): 0.69 nM; IC50 (MOLM14-F691L; MOLM-14, growth inhibition, gilteritinib-resistant AML cell line Molm14 (ITD, F691L), read-out: IC50 MOLM14-F691L): 0.18 nM; IC50 (K562; growth inhibition, K562 (ABL1) cell line, read-out: IC50 K562): 0.8 nM; IC50 (KCL22; KCL-22, growth inhibition, KCL22 cell line, read-out: IC50 KCL22): 1.32 nM; IC50 (KCL22-IR; growth inhibition, KCL22-IR cell line): 0.23 nM; IC50 (H520; NCI-H520, growth inhibition, H520 cell line, read-out: IC50 H520): 839 nM |
| CN1CCN(Cc2ccc(NC(=O)c3cncc(C#Cc4cnc5ccccn45)c3)cc2C(F)(F)F)CC1 [HSL381, 5-(imidazo[1,2-a]pyridin-3-ylethynyl)-N-(4-((4-methylpiperazin-1-yl)methyl)-3-(trifluoromethyl)phenyl)nicotinamide] | 7.12 ± 0.06 | 0.55 ± 0.06 | 0.57 ± 0.003 | 0.89 ± 0.005 | 4.24 ± 0.05 | 0.04 ± 0.006 | – |

Second part, led by results:

| IC50 (MOLM14-D835Y; [1]) [nM] | IC50 (MOLM14-F691L; [2]) [nM] | IC50 (K562; [3]) [nM] | IC50 (KCL22; [4]) [nM] | IC50 (KCL22-IR; [5]) [nM] | IC50 (MOLM14; [6]) [nM] | SMILES | also measured |
| --- | --- | --- | --- | --- | --- | --- | --- |
| 2.24 ± 0.08 | 0.57 ± 0.004 | 0.059 ± 0.002 | 0.06 ± 0.002 | 0.46 ± 0.01 | – | Cc1ncc(C(=O)Nc2ccc(CN3CCN(C)CC3)c(C(F)(F)F)c2)cc1C#Cc1cnc2cccnn12 [HSL420, 5-(imidazo[1,2-b]pyridazin-3-ylethynyl)-6-methyl-N-(4-((4-methylpiperazin-1-yl)methyl)-3-(trifluoromethyl)phenyl)nicotinamide] | – |
| 42.9 ± 0.7 | 6.87 ± 0.13 | 1.83 ± 0.02 | 2.93 ± 0.04 | 49.7 ± 2.5 | – | CN1CCN(Cc2ccc(NC(=O)c3cncc(C#Cc4cncc5nccn45)c3)cc2C(F)(F)F)CC1 [HSL407, 5-(imidazo[1,2-a]pyrazin-5-ylethynyl)-N-(4-((4-methylpiperazin-1-yl)methyl)-3-(trifluoromethyl)phenyl)nicotinamide] | – |
| > 100 | 17.8 ± 1.3 | 28.1 ± 0.6 | 28.1 ± 0.4 | – | – | CN1CCN(Cc2ccc(NC(=O)c3cncc(C#Cc4cnc5ccnn5c4)c3)cc2C(F)(F)F)CC1 [HSL412, N-(4-((4-methylpiperazin-1-yl)methyl)-3-(trifluoromethyl)phenyl)-5-(pyrazolo[1,5-a]pyrimidin-6-ylethynyl)nicotinamide] | – |
